The target of one test is T1, L-type calcium channel (Rattus norvegicus, UniProt P22002).
T1 construct: membrane fragments of rat cardiac muscle; from tissue; host or cells: rat cardiac muscle membranes
Put plainly: Competition binding of [3H]nitrendipine to membrane fragments of rat cardiac muscle.

The target of test [1] is T2, α1A Human Adrenergic Receptor (Homo sapiens, UniProt P25100).
T2 construct: The entire coding region of α1A (1719 bp); expressed in transfected cells
T2 sequence (P25100 1-572): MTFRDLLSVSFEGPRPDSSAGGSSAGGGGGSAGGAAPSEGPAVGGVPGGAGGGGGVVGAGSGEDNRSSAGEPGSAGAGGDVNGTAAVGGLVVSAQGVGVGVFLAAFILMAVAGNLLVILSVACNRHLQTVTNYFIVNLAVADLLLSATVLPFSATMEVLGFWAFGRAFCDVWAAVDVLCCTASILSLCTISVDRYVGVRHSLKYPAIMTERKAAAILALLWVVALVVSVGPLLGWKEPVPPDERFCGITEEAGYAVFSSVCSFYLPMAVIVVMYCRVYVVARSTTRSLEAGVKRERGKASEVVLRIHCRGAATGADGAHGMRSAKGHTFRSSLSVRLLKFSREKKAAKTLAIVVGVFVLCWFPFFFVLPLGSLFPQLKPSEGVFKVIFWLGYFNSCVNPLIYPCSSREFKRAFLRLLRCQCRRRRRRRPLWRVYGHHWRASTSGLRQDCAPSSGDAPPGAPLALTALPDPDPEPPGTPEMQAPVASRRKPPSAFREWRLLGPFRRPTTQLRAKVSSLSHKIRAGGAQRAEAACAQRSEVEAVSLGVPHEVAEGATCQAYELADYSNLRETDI
Put plainly: Radioligand binding, [3H]prazosin, cloned human α1A adrenergic receptor. Summed up: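 Filter-bound radioactivity measured [3H]prazosin (0.5 nM) binding to membranes of LM(tk−) cells expressing the human α1A receptor after 20 min at 37° C. Phentolamine at 10 μM set nonspecific binding.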

The target of the next test is T3, α2A receptor (Homo sapiens, UniProt P08913).
T3 construct: host or cells: LM(tk-) cells, line L-α2A
T3 sequence (P08913 1-465): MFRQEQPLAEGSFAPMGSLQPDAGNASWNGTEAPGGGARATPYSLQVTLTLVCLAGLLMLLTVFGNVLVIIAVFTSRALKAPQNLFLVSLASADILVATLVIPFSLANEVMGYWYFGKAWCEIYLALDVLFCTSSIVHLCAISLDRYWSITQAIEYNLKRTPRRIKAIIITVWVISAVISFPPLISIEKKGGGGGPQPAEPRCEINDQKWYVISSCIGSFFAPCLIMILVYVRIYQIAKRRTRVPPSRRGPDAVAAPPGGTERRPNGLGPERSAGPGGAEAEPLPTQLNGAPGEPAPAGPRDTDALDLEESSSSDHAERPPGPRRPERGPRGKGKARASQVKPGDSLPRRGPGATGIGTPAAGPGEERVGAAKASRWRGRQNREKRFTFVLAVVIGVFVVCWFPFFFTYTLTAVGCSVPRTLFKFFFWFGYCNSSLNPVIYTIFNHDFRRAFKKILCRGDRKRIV
The test can be described thus: Competition binding, [3H]rauwolscine, human α2A receptor. Summed up:
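Cell lysates from stably transfected LM(tk−) lines are resuspended in 25 mM glycylglycine (pH 7.6 at room temperature), incubated to equilibrium with 0.5 nM [3H]rauwolscine plus competitor, then filtered through GF/B filters; 10 μM phentolamine defines nonspecific binding.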

[2] abbreviates: [3H]nitrendipine, rat cardiac muscle membranes, SEM and n in lines below, read-out: pKi Ca (converted).
[3] abbreviates: [3H]prazosin, cloned human receptor in LM(tk-) cell membranes, SEM and n in lines below, read-out: pKi alpha-1 1a (converted).
The mark [4] stands for this setting: [3H]rauwolscine, LM(tk-) cell line L-α2A, SEM and n in lines below, read-out: pKi alpha-2 2a (converted).
Where [5] appears, read: [3H]nitrendipine, rat cardiac muscle membranes, mean, read-out: PKi Ca (converted).
The mark [6] stands for this setting: [3H]rauwolscine, human receptor, LM(tk-) cell lysates, mean, read-out: PKi alpha-2 2a (converted).
The mark [7] stands for this setting: [3H]prazosin, cloned human receptor in LM(tk-) cell membranes, SEM and n in lines below.
[8] abbreviates: [3H]rauwolscine, LM(tk-) cell line L-α2A, SEM and n in lines below.
[9] abbreviates: [3H]nitrendipine, rat cardiac muscle membrane fragments, L-type calcium channel, read-out: pKi Ca (converted).
Setting [10] is: [3H]rauwolscine, human α2A receptor, LM(tk−) cells, read-out: pKi alpha-2 2a (converted).
[11] abbreviates: [3H]prazosin, cloned human α1A receptor, LM(tk−) cell membranes.

Results on 15 compounds are retold here after patent US6608086B2, “Dihydropyridines and new uses thereof” (Synaptic Pharmaceutical Corporation, priority 1993, dated 2003).

Counter-ions that a name gives are not always drawn. Like-named read-outs stand apart in the source and are kept apart here.

T1 sequence (P22002 whole entry, other chains not shown, the tested form may be a part): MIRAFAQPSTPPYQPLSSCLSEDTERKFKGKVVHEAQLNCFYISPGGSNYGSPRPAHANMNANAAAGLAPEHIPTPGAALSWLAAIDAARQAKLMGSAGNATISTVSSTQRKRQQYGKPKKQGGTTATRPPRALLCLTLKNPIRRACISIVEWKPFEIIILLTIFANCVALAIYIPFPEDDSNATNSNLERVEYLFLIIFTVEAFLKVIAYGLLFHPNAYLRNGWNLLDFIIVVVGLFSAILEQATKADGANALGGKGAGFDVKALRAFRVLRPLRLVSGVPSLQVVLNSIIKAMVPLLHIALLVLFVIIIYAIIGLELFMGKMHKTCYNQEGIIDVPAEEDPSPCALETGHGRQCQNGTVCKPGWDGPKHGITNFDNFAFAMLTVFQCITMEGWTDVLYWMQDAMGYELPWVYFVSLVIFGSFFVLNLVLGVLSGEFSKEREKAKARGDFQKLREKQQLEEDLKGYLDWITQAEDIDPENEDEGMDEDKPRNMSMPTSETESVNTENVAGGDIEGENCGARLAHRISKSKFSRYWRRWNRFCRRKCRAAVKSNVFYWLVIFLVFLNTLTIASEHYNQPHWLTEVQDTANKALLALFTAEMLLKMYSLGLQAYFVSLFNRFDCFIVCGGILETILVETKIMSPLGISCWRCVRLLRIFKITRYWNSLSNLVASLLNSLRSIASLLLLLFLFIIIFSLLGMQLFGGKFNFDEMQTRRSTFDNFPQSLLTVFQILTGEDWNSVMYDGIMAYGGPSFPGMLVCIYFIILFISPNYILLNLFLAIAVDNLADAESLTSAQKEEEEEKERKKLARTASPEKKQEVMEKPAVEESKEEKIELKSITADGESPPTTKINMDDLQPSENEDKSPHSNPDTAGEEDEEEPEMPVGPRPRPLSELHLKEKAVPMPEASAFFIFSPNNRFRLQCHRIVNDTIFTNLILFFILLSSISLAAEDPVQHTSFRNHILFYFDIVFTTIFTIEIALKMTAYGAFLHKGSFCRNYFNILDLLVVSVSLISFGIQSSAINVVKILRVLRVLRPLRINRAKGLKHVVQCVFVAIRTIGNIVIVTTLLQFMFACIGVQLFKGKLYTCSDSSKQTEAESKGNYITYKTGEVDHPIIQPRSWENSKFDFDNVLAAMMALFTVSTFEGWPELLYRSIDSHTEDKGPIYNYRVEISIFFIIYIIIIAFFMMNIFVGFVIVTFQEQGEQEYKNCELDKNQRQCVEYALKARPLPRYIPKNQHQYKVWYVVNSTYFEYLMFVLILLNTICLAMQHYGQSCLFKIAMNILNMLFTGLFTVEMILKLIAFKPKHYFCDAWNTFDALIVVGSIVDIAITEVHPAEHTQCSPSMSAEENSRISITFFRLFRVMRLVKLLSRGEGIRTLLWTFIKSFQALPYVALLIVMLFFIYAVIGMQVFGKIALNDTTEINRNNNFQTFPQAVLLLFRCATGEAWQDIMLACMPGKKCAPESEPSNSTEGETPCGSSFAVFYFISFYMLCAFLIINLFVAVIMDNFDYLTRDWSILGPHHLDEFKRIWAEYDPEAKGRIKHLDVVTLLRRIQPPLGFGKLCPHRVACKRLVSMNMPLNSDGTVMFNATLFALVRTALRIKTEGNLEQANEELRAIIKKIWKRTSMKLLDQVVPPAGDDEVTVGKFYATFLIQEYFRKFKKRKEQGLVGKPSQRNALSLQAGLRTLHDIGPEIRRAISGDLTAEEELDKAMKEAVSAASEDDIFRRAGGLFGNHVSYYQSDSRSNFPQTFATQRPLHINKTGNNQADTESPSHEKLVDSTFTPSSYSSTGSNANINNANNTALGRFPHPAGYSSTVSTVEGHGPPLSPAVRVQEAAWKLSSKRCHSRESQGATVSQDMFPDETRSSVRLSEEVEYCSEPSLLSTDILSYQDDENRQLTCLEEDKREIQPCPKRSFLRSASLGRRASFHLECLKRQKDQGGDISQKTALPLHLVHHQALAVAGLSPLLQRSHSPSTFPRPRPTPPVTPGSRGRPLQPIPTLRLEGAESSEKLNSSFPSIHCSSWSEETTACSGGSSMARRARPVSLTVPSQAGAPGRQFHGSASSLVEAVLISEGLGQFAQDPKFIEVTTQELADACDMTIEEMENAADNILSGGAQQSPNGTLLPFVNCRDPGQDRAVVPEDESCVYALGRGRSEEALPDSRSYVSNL
T1 sequence (P54290 25-944 partner limits assumed, other chains not shown): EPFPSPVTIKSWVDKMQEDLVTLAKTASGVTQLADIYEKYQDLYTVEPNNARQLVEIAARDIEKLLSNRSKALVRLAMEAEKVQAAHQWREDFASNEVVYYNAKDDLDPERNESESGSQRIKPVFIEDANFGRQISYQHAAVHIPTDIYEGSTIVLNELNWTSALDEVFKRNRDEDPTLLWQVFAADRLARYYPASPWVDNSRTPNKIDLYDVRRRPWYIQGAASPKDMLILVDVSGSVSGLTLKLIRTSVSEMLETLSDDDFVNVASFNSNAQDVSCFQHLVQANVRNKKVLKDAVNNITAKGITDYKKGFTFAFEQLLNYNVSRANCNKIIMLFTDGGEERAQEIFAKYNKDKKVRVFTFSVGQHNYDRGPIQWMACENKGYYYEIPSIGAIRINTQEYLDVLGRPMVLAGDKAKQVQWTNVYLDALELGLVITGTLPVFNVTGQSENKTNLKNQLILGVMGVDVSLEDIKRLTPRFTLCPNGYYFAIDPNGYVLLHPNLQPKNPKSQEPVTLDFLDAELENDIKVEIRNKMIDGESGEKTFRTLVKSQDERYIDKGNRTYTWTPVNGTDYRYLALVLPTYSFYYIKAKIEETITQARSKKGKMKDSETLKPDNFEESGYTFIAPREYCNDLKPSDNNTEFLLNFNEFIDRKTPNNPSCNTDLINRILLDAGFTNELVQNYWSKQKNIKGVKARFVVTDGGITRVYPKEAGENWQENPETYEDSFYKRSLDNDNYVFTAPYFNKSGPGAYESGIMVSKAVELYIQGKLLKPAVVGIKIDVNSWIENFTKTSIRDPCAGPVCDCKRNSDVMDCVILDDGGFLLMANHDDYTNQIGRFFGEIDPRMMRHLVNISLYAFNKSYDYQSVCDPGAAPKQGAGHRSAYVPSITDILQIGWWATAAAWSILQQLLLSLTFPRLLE
T1 sequence (P54290 945-1091 partner limits assumed, other chains not shown): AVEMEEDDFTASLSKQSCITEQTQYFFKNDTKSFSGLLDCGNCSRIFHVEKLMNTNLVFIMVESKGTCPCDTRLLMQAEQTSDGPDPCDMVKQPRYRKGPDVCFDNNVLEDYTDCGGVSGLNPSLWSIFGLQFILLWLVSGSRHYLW

In the case of `COc1cc2c(cc1OC)CN(CCCNC(=O)C1=C(C)NC(C)=C(C(N)=O)C1c1ccc([N+](=O)[O-])cc1)CC2` (stereo not drawn) [Example 58, 5-Carboxamido-1,4-dihydro-3-{N-[3-(1,2,3,4-tetrahydro-6,7-dimethoxyisoquinolin-2-yl)propyl]}carboxamido-2,6-dimethyl-4-(4-nitrophenyl)pyridine hydrochloride], the Ki is 166 µM at L-type calcium channel (setting [2]), 3.02 µM in test [1] (setting [3]) and 0.00832 µM at α2A receptor (setting [4]).
Take `COC(=O)C1=C(C)NC(CCCCN)=C(C(=O)NCCCN2CCC(c3ccccc3)(c3ccccc3)CC2)C1c1ccc([N+](=O)[O-])cc1` (stereo not drawn) [Example 170, 2-(4-Aminobutyl)-1,4-dihydro-5-methoxycarbonyl-6-methyl-4-(4-nitrophenyl)-3-{N-[3-(4,4-diphenylpiperidin-1-yl)propyl]}carboxamidopyridine]: the Ki on L-type calcium channel (PKi Ca) is 2.4 µM; in test [1] (PKi alpha-1 1a), 0.295 µM; on α2A receptor, 6.17 µM.
For the compound `CC1=C(C(N)=O)C(c2ccc([N+](=O)[O-])cc2)C(C(=O)NCCCN2CCC(C(=O)O)(c3ccccc3)CC2)=C(C)N1` (stereo not drawn) [Example 210, 5-Carboxamido-3-{N-[3-(4-carboxy-4-phenylpiperidin-1-yl)propyl]}carboxamido-1,4-dihydro-2,6-dimethyl-4-(4-nitrophenyl)pyridine], the Ki at L-type calcium channel (PKi Ca) is 0.933 µM; in test [1] (PKi alpha-1 1a) it was 72.4 µM; at α2A receptor, 11 µM.
As for `CCC1=C(C(=O)NC)C(c2ccc([N+](=O)[O-])cc2)C(C(=O)NCCCN2CCC(C(=O)OC)(c3ccccc3)CC2)=C(COCCN)N1` (stereo not drawn) [Example 229, 2-((2-Aminoethyl)oxy)methyl-6-ethyl-1,4-dihydro-3-(N-(3-(4-methoxycarbonyl-4-phenylpiperidin-1-yl)propyl))carbo xamido-5-N-methylcarboxamido-4-(4-nitro)phenylpyridine], the Ki is 100 µM on L-type calcium channel (setting [5]); 4.17 µM in test [1] ([3H]prazosin, cloned human receptor, LM(tk-) cell membranes, mean, read-out: PKi alpha-1 1a (converted)); 3.02 µM at α2A receptor (setting [6]).
On to `CC(=O)C1=C(C)NC(C)=C(C(=O)NCCCN2CCC(c3ccccc3)(c3ccccc3)CC2)C1c1ccc([N+](=O)[O-])cc1` (stereo not drawn) [Example 47, 5-Acetyl-1,4-dihydro-2,6-dimethyl-4-(4-nitrophenyl)-3-{N-[3-(4,4-diphenylpiperidin-1-yl)propyl]}carboxamidopyridine], for which the Ki on L-type calcium channel (setting [2]) is 17.8 µM. Further, the “pKi alpha-1 1a” value in test [1] (setting [7]) is given as 6.29. Moreover, the “pKi alpha-2 2a” value on α2A receptor (setting [8]) is recorded as 6.22.
For `CCC1=C(C(N)=O)C(c2ccc([N+](=O)[O-])cc2)C(C(=O)NCCCN2CCC(c3ccccc3)(c3ccccc3)CC2)=C(CCCCN)N1` (stereo not drawn) [Example 171, 2-(4-Aminobutyl)-5-carboxamido-6-ethyl-1,4-dihydro-4-(4-nitrophenyl)-3-{N-[3-(4,4-diphenylpiperidin-1-yl)propyl]}carboxamidopyridine], the Ki at L-type calcium channel (setting [5]) is 18.6 µM; in test [1] (PKi alpha-1 1a, [3H]prazosin, cloned human receptor, LM(tk-) cell membranes, mean) it was 1.05 µM; at α2A receptor (setting [6]), 1.1 µM.
For `CCC1=C(C(=O)NCCCN2CCC(c3ccccc3)CC2)C(c2ccc([N+](=O)[O-])cc2)C(C(=O)OC)=C(C)N1` (stereo not drawn) [Example 74, 2-Ethyl-1,4-dihydro-5-methoxycarbonyl-6-methyl-4-(4-nitro)phenyl-3-(N-(3-(4-phenylpiperidin-1-yl)propyl)) carboxamidopyridine hydrochloride hydrate], the Ki at L-type calcium channel (setting [2]) was 5.25 µM; in test [1] (setting [3]) it was 0.0589 µM; at α2A receptor (setting [4]), 0.0589 µM.
`CCNC(=O)C1=C(CC)NC(COCCN)=C(C(=O)NCCCN2CCC(C(=O)OC)(c3ccccc3)CC2)C1c1ccc([N+](=O)[O-])cc1` (stereo not drawn) [Example 233, 2-((2-Aminoethyl)oxy)methyl-6-ethyl-5-N-ethylcarboxamido-1,4-dihydro-3-(N-(3-(4-methoxycarbonyl-4-phenylpiperidin-1-yl)propyl))carboxamido-4-(4-nitro)phenylpyridine]: the values for the Ki (on L-type calcium channel (PKi Ca); in test [1] (PKi alpha-1 1a); at α2A receptor) were 0.257 µM, 4.07 µM and 4.79 µM, respectively.
`COC(=O)C1=C(C)NC(C)=C(C(=O)NCCCN2CCC(c3ccccc3)CC2)C1c1cccc([N+](=O)[O-])c1` (stereo not drawn) [Example 30, 1,4-Dihydro-3-methoxycarbonyl-2,6-dimethyl-4-(3-nitrophenyl)-5-(N-(3-(4-phenylpiperidin-1-yl)propyl)carboxamido)pyridine]: the values for the Ki (at L-type calcium channel (setting [2]); in test [1] (setting [3]); at α2A receptor (setting [4])) were 0.0955 µM, 0.155 µM and 0.117 µM, respectively.
As to `CNC(=O)C1=C(C)NC(C)=C(C(=O)NCCCN2CCC(c3ccccc3)(c3ccccc3)CC2)C1c1ccc([N+](=O)[O-])cc1` (racemic) [(±)-119, 1,4-Dihydro-2,6-dimethyl-5-(N-Methyl) carboxamido-4-(4-nitrophenyl)-3-{N-[3-(4,4-diphenylpiperidin-1-yl)propyl]}carboxamidopyridine], the Ki at L-type calcium channel (pKi Ca) is 7.41 µM. Moreover, the “pKi alpha-1 1a” value in test [1] stood at 6.21. On α2A receptor, the “pKi alpha-2 2a” value came to 6.4.
For the compound `COc1ccccc1N1CCN(CCCNC(=O)C2=C(C)NC(C)=C(C(N)=O)C2c2ccc([N+](=O)[O-])cc2)CC1` (stereo not drawn) [Example 124], the Ki on L-type calcium channel (setting [9]) is 1000 µM; in test [1] ([3H]prazosin, cloned human α1A receptor, LM(tk−) cell membranes, read-out: pKi alpha-1 1a (converted)), 0.0575 µM; at α2A receptor (setting [10]), 0.0224 µM.
As to `CCC1=C(C(N)=O)C(c2ccc([N+](=O)[O-])cc2)C(C(=O)NCCCN2CCC(c3ccccc3)(c3ccccc3)CC2)=C(CC)N1` (stereo not drawn) [Example 120, 5-Carboxamido-2,6-diethyl-1,4-dihydro-4-(4-nitrophenyl)-3-{N-[3-(4,4-diphenylpiperidin-1-yl)propyl]} carboxamidopyridine], the results for the Ki at L-type calcium channel (setting [9]) and on α2A receptor (setting [10]) were 1000 µM and 0.363 µM, respectively. Further, in test [1] (setting [11]), the “pKi alpha-1 1a” value amounted to 6.33.
`COC(=O)C1=C(C)NC(C)=C(C(=O)NCCCCN2CCC(c3ccccc3)(c3ccccc3)CC2)C1c1ccc([N+](=O)[O-])cc1.Cl.O` (stereo not drawn) [Example 53, 1,4-Dihydro-3-methoxycarbonyl-2,6-dimethyl-4-(4-nitrophenyl)-5-{N-[4-(4,4-diphenylpiperidin-1-yl)butyl]}carboxamidopyridine hydrochloride hydrate]: at L-type calcium channel ([3H]nitrendipine, rat cardiac muscle membranes, SEM and n in lines below), the “pKi Ca” value is listed as 5.54. The “pKi alpha-1 1a” value in test [1] (setting [7]) is recorded as 6.49. For the same compound, the “pKi alpha-2 2a” value on α2A receptor (setting [8]) came to 6.18.
For `CCC1=C(C(N)=O)C(c2ccc([N+](=O)[O-])cc2)C(C(=O)NC2CCN(CCc3c[nH]c4ccccc34)CC2)=CN1CC` (stereo not drawn) [Example 123, 5-Carboxamido-1,6-diethyl-1,4-dihydro-3-(N-{1-[2-(3-indolyl)ethyl]piperidin-4-yl}) carboxamide-4-(4-nitrophenyl)pyridine], the “pKi Ca” value at L-type calcium channel ([3H]nitrendipine, rat cardiac muscle membrane fragments, L-type calcium channel) was 4.53. Moreover, in test [1] (setting [11]), the “pKi alpha-1 1a” value was 6.7. In addition, the “pKi alpha-2 2a” value at α2A receptor ([3H]rauwolscine, human α2A receptor, LM(tk−) cells) is 6.03.
With “5-Acetyl-1,4-dihydro-2,6-dimethyl-4-(4-nitrophenyl)-3-[3-(4,4-diphenylpiperidin-1-yl)propoxy]carbonylpyridine hydrochloride hemihydrate [Example 49]”, on L-type calcium channel, the “pKi Ca” value is reported as 5.37. In addition, in test [1], the “pKi alpha-1 1a” value was found to be 6.94. Moreover, the “pKi alpha-2 2a” value at α2A receptor was found to be 6.63.
